Results published in patent US20230062119A1, “USE OF BIOMARKERS IN IDENTIFYING PATIENTS THAT WILL BE RESPONSIVE TO TREATMENT WITH A PRMT5 INHIBITOR” (Merck Sharp & Dohme LLC, priority 2019, published 2023).

target: T1, Full-length (FL)-PRMT5-MEP50 enzyme complex (Homo sapiens, UniProt O14744); test: PRMT5-MEP50 Enzyme Methylation Assay; type: biochemical; settings: one EC50: 4 parameters single site sigmoidal model; EC50 1: first value of 7 parameters biphasic model; 1.0 nM PRMT5-MEP50, 75 nM biotinylated peptide, 15 μM SAM; read-out: Enzyme Methylation Assay (EC50 or EC50 1)
T1 construct: Full-length (FL)-PRMT5-MEP50 enzyme complex (recombinant proteins from baculovirus-transfected Sf21 cells: FL-PRMT5; MW=73837 kDa and FL-MEP50; MW=38614); made in house; host or cells: baculovirus-transfected Sf21 insect cells
Method: PRMT5-MEP50 biochemical assay is a direct measurement of the methylation activity of the enzyme complex on a short peptide substrate derived from the N-terminus of H4 histone. Methylation experiment is performed with recombinant PRMT5-MEP50 protein complex. The assessment of inhibitory effect of small molecules is measured by the effectiveness of the compounds to inhibit this reaction (EC50).
In this assay, the potency (EC50) of each compound was determined from a twenty-point (1:2 serial dilution; top compound concentration of 100000 nM) titration curve using the following outlined procedure. To each well of a white ProxiPlus 384 well-plate, 100 nL of compound (1% DMSO in final assay volume of 10 μL) was dispensed, followed by the addition of 8 μL of 1× assay buffer (50 mM Bicine pH 8.0, 1 mM DTT, 0.004% Tween20, 0.01% BSA) containing 1.25 nM of Full-length (FL)-PRMT5-MEP50 enzyme complex (recombinant proteins from baculovirus-transfected Sf21 cells: FL-PRMT5; MW=[…] and FL-MEP50; MW=38614) and 1 μL of 150 μM S-(5′-Adenosyl)-L-Methionine Chloride (SAM). Plates were sealed and placed in a 37° C. humidified chamber for a 60 minutes pre-incubation with compound. Subsequently, each reaction was initiated by the addition of 1 μL 1× assay buffer containing 750 nM biotinylated H4R3(Mel) peptide. The final reaction in each well of 10 μL consists of 1.0 nM PRMT5-MEP50, 75 nM biotinylated-peptide, and 15 μM SAM. Methylation reactions proceeded for 150 minutes in a sealed plate at 37° C. Reactions were immediately quenched by the addition of 1 μL of 5% formic acid. Plates were then frozen and shipped to SAMDI™ Tech Inc. to determine the percent conversion from H4R3(Mel) to H4R3(Me2). Dose-response curves were generated by plotting percent effect (% product conversion; Y-axis) vs. Log 10 compound concentrations (X-axis). EC50 values were determined by non-linear regression according to models for either sigmoidal (4 parameters) or biphasic (7 parameters) dose-response curves.

T1 sequence (O14744 whole entry): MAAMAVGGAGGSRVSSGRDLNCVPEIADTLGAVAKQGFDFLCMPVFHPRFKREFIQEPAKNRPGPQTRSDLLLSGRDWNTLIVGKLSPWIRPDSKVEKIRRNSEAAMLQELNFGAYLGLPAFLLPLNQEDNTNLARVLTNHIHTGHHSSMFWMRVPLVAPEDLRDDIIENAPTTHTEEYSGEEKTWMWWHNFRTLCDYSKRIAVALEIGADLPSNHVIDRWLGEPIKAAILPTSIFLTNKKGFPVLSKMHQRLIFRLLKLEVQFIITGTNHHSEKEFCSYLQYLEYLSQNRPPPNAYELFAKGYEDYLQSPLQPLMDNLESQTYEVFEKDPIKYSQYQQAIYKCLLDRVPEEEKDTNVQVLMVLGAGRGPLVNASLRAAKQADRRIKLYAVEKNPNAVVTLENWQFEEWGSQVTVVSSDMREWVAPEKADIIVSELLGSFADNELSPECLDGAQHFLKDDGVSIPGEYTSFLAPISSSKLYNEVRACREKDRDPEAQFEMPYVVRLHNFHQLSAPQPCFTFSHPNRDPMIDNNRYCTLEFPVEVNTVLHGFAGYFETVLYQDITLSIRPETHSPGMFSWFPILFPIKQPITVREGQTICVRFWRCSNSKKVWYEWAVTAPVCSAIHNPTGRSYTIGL
T1 sequence (Q9BQA1 whole entry partner): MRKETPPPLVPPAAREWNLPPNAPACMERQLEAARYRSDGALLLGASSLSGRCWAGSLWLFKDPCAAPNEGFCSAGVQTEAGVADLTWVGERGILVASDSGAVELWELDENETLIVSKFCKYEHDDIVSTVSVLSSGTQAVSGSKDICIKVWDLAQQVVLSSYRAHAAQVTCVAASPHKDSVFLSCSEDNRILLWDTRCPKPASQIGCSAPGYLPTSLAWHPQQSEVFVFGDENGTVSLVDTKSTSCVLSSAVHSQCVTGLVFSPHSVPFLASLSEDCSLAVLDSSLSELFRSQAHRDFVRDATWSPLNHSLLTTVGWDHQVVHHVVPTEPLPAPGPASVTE

SMILES	EC50 [nM]
Cc1cn([C@@H]2C[C@@H]3[C@H](Cc4ccc5cc(F)c(N)nc5c4)CC[C@]3(O)[C@H]2O)c2ncnc(N)c12 [Example 38, (1S,2R,3aR,4S,6aR)-4-((2-amino-3-fluoroquinolin-7-yl)methyl)-2-(4-amino-5-methyl-7H-pyrrolo[2,3-d]pyrimidin-7-yl)hexahydropentalene-1,6a(1H)-diol]	0.3
Cc1cn([C@@H]2C[C@@H]3[C@H](Cc4ccc5cc(Cl)c(N)nc5c4)CC[C@]3(O)[C@H]2O)c2ncnc(N)c12 [Example 39, (1S,2R,3aR,4S,6aR)-4-((2-amino-3-chloroquinolin-7-yl)methyl)-2-(4-amino-5-methyl-7H-pyrrolo[2,3-d]pyrimidin-7-yl)hexahydropentalene-1,6a(1H)-diol]	0.3
Cc1cn([C@@H]2C[C@@H]3[C@H](Cc4ccc5cc(Br)c(N)nc5c4)CC[C@]3(O)[C@H]2O)c2ncnc(N)c12 [Example 40, (1S,2R,3aR,4S,6aR)-4-((2-amino-3-bromoquinolin-7-yl)methyl)-2-(4-amino-5-methyl-7H-pyrrolo[2,3-d]pyrimidin-7-yl)hexahydropentalene-1,6a(1H)-diol]	0.4
Nc1nc2cc(C[C@@H]3CC[C@@]4(O)[C@@H]3C[C@@H](n3ccc5c(N)ncnc53)[C@@H]4O)ccc2cc1Br [Example 41, (1S,2R,3aR,4S,6aR)-4-((2-amino-3-bromoquinolin-7-yl)methyl)-2-(4-amino-7H-pyrrolo[2,3-d]pyrimidin-7-yl)hexahydropentalene-1,6a(1H)-diol 2,2,2-trifluoroacetate]	0.7
Nc1nc2cc(C[C@@H]3CC[C@@]4(O)[C@@H]3C[C@@H](n3cc(F)c5c(N)ncnc53)[C@@H]4O)ccc2cc1Br [Example 42, (1S,2R,3aR,4S,6aR)-4-((2-amino-3-bromoquinolin-7-yl)methyl)-2-(4-amino-5-fluoro-7H-pyrrolo[2,3-d]pyrimidin-7-yl)hexahydropentalene-1,6a(1H)-diol]	0.3
Nc1nc2cc(C[C@@H]3CC[C@@]4(O)[C@@H]3O[C@@H](n3cc(C(F)F)c5c(N)ncnc53)[C@@H]4O)ccc2cc1Br [Example 43, (2R,3R,3aS,6S,6aR)-6-[(2-amino-3-bromoquinolin-7-yl)methyl]-2-[4-amino-5-(difluoromethyl)-7H-pyrrolo[2,3-d]pyrimidin-7-yl]hexahydro-3aH-cyclopenta[b]furan-3,3a-diol]	0.4
Cc1nc(N)c2c(F)cn([C@@H]3O[C@@H]4[C@H](Cc5ccc6cc(F)c(N)nc6c5)CC[C@]4(O)[C@H]3O)c2n1 [Example 44, (2R,3R,3aS,6S,6aR)-6-((2-amino-3-fluoroquinolin-7-yl)methyl)-2-(4-amino-5-fluoro-2-methyl-7H-pyrrolo[2,3-d]pyrimidin-7-yl)hexahydro-3aH-cyclopenta[b]furan-3,3a-diol 2,2,2-trifluoroacetate]	0.4
Nc1nc2cc(C[C@@H]3CC[C@@]4(O)[C@@H]3O[C@@H](n3ccc5c(N)nc(F)nc53)[C@@H]4O)ccc2cc1F [Example 45, (2R,3R,3aS,6S,6aR)-2-(4-amino-2-fluoro-7H-pyrrolo[2,3-d]pyrimidin-7-yl)-6-((2-amino-3-fluoroquinolin-7-yl)methyl)hexahydro-3aH-cyclopenta[b]furan-3,3a-diol]	0.3
Nc1nc2cc(C[C@@H]3CC[C@@]4(O)[C@@H]3O[C@@H](n3ccc5c(N)nc(Cl)nc53)[C@@H]4O)ccc2cc1Cl [Example 47, (2R,3R,3aS,6S,6aR)-2-(4-amino-2-chloro-7H-pyrrolo[2,3-d]pyrimidin-7-yl)-6-[(2-amino-3-chloroquinolin-7-yl)methyl]hexahydro-3aH-cyclopenta[b]furan-3,3a-diol]	0.2
Nc1nc2cc(C[C@@H]3CC[C@@]4(O)[C@@H]3O[C@@H](n3ccc5c(N)nc(Cl)nc53)[C@@H]4O)ccc2cc1F [Example 48, (2R,3R,3aS,6S,6aR)-2-(4-amino-2-chloro-7H-pyrrolo[2,3-d]pyrimidin-7-yl)-6-[(2-amino-3-fluoroquinolin-7-yl)methyl]hexahydro-3aH-cyclopenta[b]furan-3,3a-diol]	0.5
Nc1nc2cc(O[C@H]3CC[C@@]4(O)[C@@H]3O[C@@H](n3cc(-c5ccccc5)c5c(N)ncnc53)[C@@H]4O)ccc2cc1Br [Example 49, (2R,3R,3aS,6S,6aR)-6-[(2-amino-3-bromoquinolin-7-yl)oxy]-2-(4-amino-5-phenyl-7H-pyrrolo[2,3-d]pyrimidin-7-yl)hexahydro-3aH-cyclopenta[b]furan-3,3a-diol]	0.5
Nc1nc2cc(C[C@@H]3CC[C@@]4(O)[C@@H]3O[C@@H](n3cc(C(F)F)c5c(N)ncnc53)[C@@H]4O)ccc2cc1F [Example 51, (2R,3R,3aS,6S,6aR)-2-[4-amino-5-(difluoromethyl)-7H-pyrrolo[2,3-d]pyrimidin-7-yl]-6-[(2-amino-3-fluoroquinolin-7-yl)methyl]hexahydro-3aH-cyclopenta[b]furan-3,3a-diol]	1.2
Nc1nc2cc(O[C@H]3CC[C@@]4(O)[C@@H]3O[C@@H](n3cc(C5CC5)c5c(N)ncnc53)[C@@H]4O)ccc2cc1Br [Example 52, (2R,3R,3aS,6S,6aR)-6-[(2-amino-3-bromoquinolin-7-yl)oxy]-2-(4-amino-5-cyclopropyl-7H-pyrrolo[2,3-d]pyrimidin-7-yl)hexahydro-3aH-cyclopenta[b]furan-3,3a-diol]	0.5
Nc1nc2cc(C[C@H]3[C@H]4O[C@@H](n5ccc6c(N)ncnc65)[C@H](O)[C@@]4(O)CC3(F)F)ccc2cc1F [Example 53, (2R,3R,3aS,6S,6aR)-6-[(2-amino-3-fluoroquinolin-7-yl)methyl]-2-(4-amino-7H-pyrrolo[2,3-d]pyrimidin-7-yl)-5,5-difluorohexahydro-3aH-cyclopenta[b]furan-3,3a-diol]	0.3
Nc1nc2cc(C[C@H]3[C@H]4O[C@@H](n5ccc6c(N)ncnc65)[C@H](O)[C@@]4(O)C[C@@H]3F)ccc2cc1F [Example 54, (2R,3R,3aS,5S,6S,6aR)-6-[(2-amino-3-fluoroquinolin-7-yl)methyl]-2-(4-amino-7H-pyrrolo[2,3-d]pyrimidin-7-yl)-5-fluorohexahydro-3aH-cyclopenta[b]furan-3,3a-diol]	0.3
Nc1nc2cc(C[C@H]3[C@H]4O[C@@H](n5cc(F)c6c(N)ncnc65)[C@H](O)[C@@]4(O)C[C@@H]3F)ccc2cc1F [Example 55, (2R,3R,3aS,5S,6S,6aR)-2-(4-amino-5-fluoro-7H-pyrrolo[2,3-d]pyrimidin-7-yl)-6-[(2-amino-3-fluoroquinolin-7-yl)methyl]-5-fluorohexahydro-3aH-cyclopenta[b]furan-3,3a-diol, 2,2,2-trifluoroethanol]	0.5
Nc1nc2cc(O[C@H]3CC[C@@]4(O)[C@@H]3O[C@@H](n3cc(F)c5c(N)ncnc53)[C@@H]4O)ccc2cc1Br [Example 56, (2R,3R,3aS,6S,6aR)-6-((2-amino-3-bromoquinolin-7-yl)oxy)-2-(4-amino-5-fluoro-7H-pyrrolo[2,3-d]pyrimidin-7-yl)hexahydro-3aH-cyclopenta[b]furan-3,3a-diol]	0.2
Nc1ncnc2c1ccn2[C@@H]1O[C@@H]2[C@@H](Oc3ccc4ccc(NCC(F)(F)F)nc4c3)CC[C@]2(O)[C@H]1O [Example 57, (2R,3R,3aS,6S,6aR)-2-(4-amino-7H-pyrrolo[2,3-d]pyrimidin-7-yl)-6-((2-((2,2,2-trifluoroethyl)amino)quinolin-7-yl)oxy)hexahydro-3aH-cyclopenta[b]furan-3,3a-diol]	0.7
Nc1ncnc2c1ccn2[C@@H]1O[C@@H]2[C@@H](Oc3ccc4ccc(NCC5CC5)nc4c3)CC[C@]2(O)[C@H]1O [Example 58, (2R,3R,3aS,6S,6aR)-2-(4-amino-7H-pyrrolo[2,3-d]pyrimidin-7-yl)-6-((2-((cyclopropylmethyl)amino)quinolin-7-yl)oxy)hexahydro-3aH-cyclopenta[b]furan-3,3a-diol]	0.4
Nc1nc2cc(C[C@@H]3CC[C@@]4(O)[C@@H]3O[C@@H](n3cc(F)c5c(N)ncnc53)[C@@H]4O)ccc2cc1F [Example 59, (2R,3R,3aS,6S,6aR)-6-((2-amino-3-fluoroquinolin-7-yl)methyl)-2-(4-amino-5-fluoro-7H-pyrrolo[2,3-d]pyrimidin-7-yl)hexahydro-3aH-cyclopenta[b]furan-3,3a-diol]	0.6

same assay, conditions: second EC50 of 7 parameters biphasic model; 1.0 nM PRMT5-MEP50, 75 nM biotinylated peptide, 15 μM SAM; read-out: Enzyme Methylation Assay (EC50 2)

SMILES	EC50 [nM]
Nc1nc2cc(C[C@H]3[C@H]4O[C@@H](n5cc(F)c6c(N)ncnc65)[C@H](O)[C@@]4(O)C[C@@H]3F)ccc2cc1F [Example 55, (2R,3R,3aS,5S,6S,6aR)-2-(4-amino-5-fluoro-7H-pyrrolo[2,3-d]pyrimidin-7-yl)-6-[(2-amino-3-fluoroquinolin-7-yl)methyl]-5-fluorohexahydro-3aH-cyclopenta[b]furan-3,3a-diol, 2,2,2-trifluoroethanol]	191
Nc1ncnc2c1ccn2[C@@H]1O[C@@H]2[C@@H](Oc3ccc4ccc(NCC(F)(F)F)nc4c3)CC[C@]2(O)[C@H]1O [Example 57, (2R,3R,3aS,6S,6aR)-2-(4-amino-7H-pyrrolo[2,3-d]pyrimidin-7-yl)-6-((2-((2,2,2-trifluoroethyl)amino)quinolin-7-yl)oxy)hexahydro-3aH-cyclopenta[b]furan-3,3a-diol]	143
